Experimental data as given in patent US20110100079A1, “METHOD FOR IMPARTING STRESS TOLERANCE TO PLANT” (priority 2007, published 2011).

What was measured:
Type in all cases: in vivo
[1] = test system: “Momotaro” tomato; assay: Example 3 drying stress tolerance imparting test (tomato); conditions: 3 weeks
[2] = test system: tomato; assay: Example 8 temperature stress test (tomato), soil culture; conditions: 100 ppm, 2 weeks; for Fresh weight, relative value (untreated plot = 100), Comparison 1: stress-free: tomato soil culture, cultivation temperature 23, EC 1, pF 1.7, two-leaf stage; for Fresh weight, relative value (untreated plot = 100), Test 1 / Fresh weight, relative value (untreated plot = 100), Test 2 / Fresh weight, relative value (untreated plot = 100), Test 3 / Fresh weight, relative value (untreated plot = 100), Test 4: tomato soil culture; for Fresh weight, relative value (untreated plot = 100), Test 1: cultivation temperature 10, EC 1, pF 1.7, two-leaf stage; for Fresh weight, relative value (untreated plot = 100), Test 2: cultivation temperature 16, EC 1, pF 1.7, two-leaf stage; for Fresh weight, relative value (untreated plot = 100), Test 3: cultivation temperature 29, EC 1, pF 1.7, two-leaf stage; for Fresh weight, relative value (untreated plot = 100), Test 4: cultivation temperature 35, EC 1, pF 1.7, two-leaf stage
Method: (§1) Other Conditions were as in Example 5. The environmental conditions in a climatic chamber were controlled so as to have an illuminance by a fluorescent light of 5000 Lux, a daily light-dark cycle of a 16-hour light period and an 8-hour dark period, and various temperatures. Tomatoes as prepared above were transplanted in size-3 (9 cm) pots. A treatment solution containing a compound of Table 1 in a specific concentration (the remainder was water) was prepared and sprayed onto the leaves or applied to the underground portions. […] A comparative example was constructed to reflect the temperature stress-free optimum cultivation conditions to investigate the plant energizing ability. […] Moreover, when the products of the present invention and the comparative products were compared, the stress tolerance imparting ability of the products of the present invention was higher in respective temperature stress conditions.

[3] = test system: tomato; assay: Example 7 drying stress test (tomato), soil culture; conditions: 23° C., 100 ppm, 2 weeks; for Fresh weight, relative value (untreated plot = 100), Comparison 1: stress-free: tomato soil culture, EC 1, pF 1.7, two-leaf stage; for Fresh weight, relative value (untreated plot = 100), Test 1 / Fresh weight, relative value (untreated plot = 100), Test 4 / Fresh weight, relative value (untreated plot = 100), Test 2 / Fresh weight, relative value (untreated plot = 100), Test 3: tomato soil culture; for Fresh weight, relative value (untreated plot = 100), Test 1: EC 1, pF 2.8, two-leaf stage; for Fresh weight, relative value (untreated plot = 100), Test 4: EC 1, pF 3.5, five-leaf stage; for Fresh weight, relative value (untreated plot = 100), Test 2: EC 1, pF 3.5, two-leaf stage; for Fresh weight, relative value (untreated plot = 100), Test 3: EC 1, pF 4.1, two-leaf stage
Method: as §1, with “The” for “Other Conditions were as in Example 5. The”, “have a temperature of 23° C.,” for “have”, “Lux, and” for “Lux,”, “period.” for “period, and various temperatures.”, “pots. During the test period, the pF value was controlled by adding a suitable amount of tap water once a day so as to attain a specific drying stress value.” for “pots.”, “drying” for “temperature”

[4] = test system: “Momotaro” tomato; assay: Example 2 temperature stress tolerance imparting test (tomato); conditions: 2 weeks
[5] = test system: potato; assay: Example 9 drying stress test (potato), soil culture; conditions: 23° C., 100 ppm, 2 weeks; for Fresh weight, relative value (untreated plot = 100), Test 1 / Fresh weight, relative value (untreated plot = 100), Test 4 / Fresh weight, relative value (untreated plot = 100), Test 2 / Fresh weight, relative value (untreated plot = 100), Test 3: potato soil culture; for Fresh weight, relative value (untreated plot = 100), Test 1: EC 1, pF 2.8, two-leaf stage; for Fresh weight, relative value (untreated plot = 100), Test 4: EC 1, pF 3.5, five-leaf stage; for Fresh weight, relative value (untreated plot = 100), Test 2: EC 1, pF 3.5, two-leaf stage; for Fresh weight, relative value (untreated plot = 100), Test 3: EC 1, pF 4.1, two-leaf stage; for Fresh weight, relative value (untreated plot = 100), Comparison 1: stress-free: potato soil culture, EC 1, pF 1.7, two-leaf stage
Method: The environmental conditions in a climatic chamber were controlled so as to have a temperature of 23° C., an illuminance by a fluorescent light of 5000 Lux, and a daily light-dark cycle of a 16-hour light period and an 8-hour dark period. Potatoes as prepared above were transplanted in size-5 (15 cm) pots. During the test period, the pF value was controlled by adding a suitable amount of tap water once a day so as to attain a specific drying stress value. A treatment solution containing a compound of Table 5 in a specific concentration (the remainder was water) was prepared and sprayed onto the leaves or applied to the underground portions. […] A comparative example was constructed to reflect the drying stress-free optimum cultivation conditions to investigate the plant energizing ability. […] Moreover, when the products of the present invention and the comparative products were compared, the stress tolerance imparting ability of the products of the present invention was higher in respective drying stress conditions.

[6] = pF 2.3, leaf, 100 ppm once a week

POE (20) sorbitan monooleic acid ester [Product of present invention 1]
Extent of imparting plant stress tolerance ([1]; pF 2.3, leaf, 1 ppm once a week): 112% | Extent of imparting plant stress tolerance ([1]; pF 2.3, leaf, 10 ppm once a week): 113% | Extent of imparting plant stress tolerance [1, 6]: 113% | Extent of imparting plant stress tolerance ([1]; pF 2.3, leaf, 1000 ppm once a week): 117% | Extent of imparting plant stress tolerance ([1]; pF 2.3, underground portion, 100 ppm once a week): 129% | Extent of imparting plant stress tolerance ([1]; pF 2.5, leaf, 100 ppm once a week): 117% | Extent of imparting plant stress tolerance ([1]; pF 2.5, underground portion, 100 ppm once a week): 128% | Extent of imparting plant stress tolerance ([1]; pF 2.9, leaf, 100 ppm once a week): 124% | Extent of imparting plant stress tolerance ([1]; pF 2.9, underground portion, 100 ppm once a week): 135% | Fresh weight, relative value (untreated plot = 100), Comparison 1 ([2]; underground portion): 103 | Fresh weight, relative value (untreated plot = 100), Test 1 ([2]; underground portion): 128 | Fresh weight, relative value (untreated plot = 100), Test 2 ([2]; underground portion): 131 | Fresh weight, relative value (untreated plot = 100), Test 3 ([2]; underground portion): 158 | Fresh weight, relative value (untreated plot = 100), Test 4 ([2]; underground portion): 138 | Fresh weight, relative value (untreated plot = 100), Comparison 1 ([3]; underground portion): 103 | Fresh weight, relative value (untreated plot = 100), Test 1 ([3]; underground portion): 134 | Fresh weight, relative value (untreated plot = 100), Test 4 ([3]; underground portion): 160 | Fresh weight, relative value (untreated plot = 100), Test 2 ([3]; underground portion): 188 | Fresh weight, relative value (untreated plot = 100), Test 3 ([3]; underground portion): 145 | Extent of imparting plant stress tolerance ([4]; 10° C., leaf, 100 ppm): 125% | Extent of imparting plant stress tolerance ([4]; 10° C., underground portion, 100 ppm): 140% | Extent of imparting plant stress tolerance ([4]; 15° C., leaf, 100 ppm): 117% | Extent of imparting plant stress tolerance ([4]; 15° C., underground portion, 100 ppm): 130% | Extent of imparting plant stress tolerance ([4]; 32° C., leaf, 1 ppm): 113% | Extent of imparting plant stress tolerance ([4]; 32° C., leaf, 10 ppm): 113% | Extent of imparting plant stress tolerance ([4]; 32° C., leaf, 100 ppm): 114% | Extent of imparting plant stress tolerance ([4]; 32° C., leaf, 1000 ppm): 119% | Extent of imparting plant stress tolerance ([4]; 32° C., underground portion, 100 ppm): 127% | Fresh weight, relative value (untreated plot = 100), Test 1 ([5]; underground portion): 133 | Fresh weight, relative value (untreated plot = 100), Test 4 ([5]; underground portion): 156 | Fresh weight, relative value (untreated plot = 100), Test 2 ([5]; underground portion): 185 | Fresh weight, relative value (untreated plot = 100), Test 3 ([5]; underground portion): 140 | Fresh weight, relative value (untreated plot = 100), Comparison 1 ([5]; underground portion): 102

Alkyl (C10) polyglycoside [Product of present invention 15]
Extent of imparting plant stress tolerance [1, 6]: 117% | Extent of imparting plant stress tolerance ([1]; pF 2.3, leaf, 200 ppm once a week): 115% | Fresh weight, relative value (untreated plot = 100), Comparison 1 ([2]; leaf): 102 | Fresh weight, relative value (untreated plot = 100), Test 1 ([2]; leaf): 116 | Fresh weight, relative value (untreated plot = 100), Test 2 ([2]; leaf): 119 | Fresh weight, relative value (untreated plot = 100), Test 3 ([2]; leaf): 136 | Fresh weight, relative value (untreated plot = 100), Test 4 ([2]; leaf): 126 | Fresh weight, relative value (untreated plot = 100), Comparison 1 ([3]; leaf): 101 | Fresh weight, relative value (untreated plot = 100), Test 1 ([3]; leaf): 121 | Fresh weight, relative value (untreated plot = 100), Test 4 ([3]; leaf): 139 | Fresh weight, relative value (untreated plot = 100), Test 2 ([3]; leaf): 147 | Fresh weight, relative value (untreated plot = 100), Test 3 ([3]; leaf): 126 | Extent of imparting plant stress tolerance ([4]; 32° C., leaf, 100 ppm): 115% | Extent of imparting plant stress tolerance ([4]; 32° C., leaf, 200 ppm): 115% | Fresh weight, relative value (untreated plot = 100), Test 1 ([5]; leaf): 121 | Fresh weight, relative value (untreated plot = 100), Test 4 ([5]; leaf): 134 | Fresh weight, relative value (untreated plot = 100), Test 2 ([5]; leaf): 142 | Fresh weight, relative value (untreated plot = 100), Test 3 ([5]; leaf): 121 | Fresh weight, relative value (untreated plot = 100), Comparison 1 ([5]; leaf): 102
